Measurements: patent publication US4176189A, “Insecticidal and acaricidal hydantoin N-methylol esters” (Sumitomo Chemical Company, Limited, priority 1977, dated 1979)
Read-outs that look alike come from different tables or passages of the source.

What was measured:
Type in all cases: in vivo
[1] = system: northern house mosquito female adults (Culex pipiens pallens); experiment: Oil spray in (70 cm)^3 glass chamber, northern house mosquito female adults, KT50 and mortality (Experimental Example 2); details: for mortality at 0.1 %: Culex pipiens
Description: (§1) 0.1 Part of each of the present compounds was dissolved in kerosene and made up to 100 parts with kerosene. Thus, the oil spray of each compound was obtained. Ten northern house mosquito female adults (Culex pipiens pallens) and 10 housefly adults (Musca domestica) were liberated in a (70 cm)^3 glass chamber. 0.7 ml of the oil spray was applied and the number of knocked down insects was counted with the lapse of time. The value of KT50 was obtained from the mean knock-down ratio of three replications according to Finney's graphic method. After 10 minutes, the knocked down insects were collected and transferred to a recovery container and fed with a 5% sugar solution. After 24 hours, the dead and alive were examined.

[2] = system: housefly adults (Musca domestica); experiment: Oil spray in (70 cm)^3 glass chamber, housefly adults, KT50 and mortality (Experimental Example 2); details: for mortality at 0.1 %: Musca domestica
Description: as §1

[3] = system: housefly female adults (Musca domestica); experiment: Housefly female adults on treated filter paper in polyethylene cup, mortality after 48 hours (Experimental Example 1)
Description: Ten percent emulsifiable concentrates were prepared as in the Preparation example 3.
At the bottom of a polyethylene cup of 5.5 cm in diameter was placed a filter paper of the same size. 0.75 Ml of a 200-fold aqueous dilute solution of each emulsifiable concentrate (corresponding to 500 ppm) was dropped on the filter paper, and 30 mg of sucrose as a food was uniformly placed. Ten housefly female adults (Musca domestica) were liberated in the cup which was then covered with a lid. After 48 hours, the dead and alive were examined to obtain mortality (4 replications).

[4] = system: adult German cockroaches (Blattella germanica); experiment: Flushing out of German cockroaches from shelter (Experimental Example 8); details: 0.7 ml of 0.1% oil spray
Description: Ten adult German cockroaches (Blattella germanica) were liberated in a plywood-made trigonal prism like shelter with diet and water. The shelter containing cockroaches was made stand opening upward in a glass chamber (70 cm)^3, and 0.7 ml of 0.1% oil spray of each compound was applied to the chamber. The number of flushed out insects was counted with the lapse of time.

[5] = system: northern house mosquito female adults (Culex pipiens pallens); experiment: Oil spray in (70 cm)^3 glass chamber, knock down of mosquitoes at 10 minutes (Experimental Example 3); details: oil sprays of Preparation example 1 (0.2 part in 100), 0.7 ml, 10 minutes after spraying, read-out: KD%
Source text: Ten northern house mosquito female adults (Culex pipiens pallens) were liberated in a (70 cm)^3 glass chamber.

[6] = northern house mosquito female adult, 0.1% oil spray, 0.7 ml
[7] = housefly adult, 0.1% oil spray, 0.7 ml
[8] = 200-fold aqueous dilution of emulsifiable concentrate (500 ppm), 48 hours, housefly female adults, read-out: Mortality

| Compound | mortality at 0.1 % ([1]; 24 h) [%] | KT50 [1, 6] [s] | mortality at 0.1 % ([2]; 24 h) [%] | KT50 [2, 7] [s] | mortality at 500 µg/mL ([3]; 48 h) [%] | pest or weed control at 0.2 % [5] [%] | also measured |
| --- | --- | --- | --- | --- | --- | --- | --- |
| C#CCN1CC(=O)N(COC(=O)[C@@H]2[C@H](C=C(Br)Br)C2(C)C)C1=O [Present compound (11) (d-cis isomer), 1-Propargyl-3-hydantoinylmethyl 2,2-dimethyl-3-(2,2-dibromovinyl)cyclopropanecarboxylate] | 95 | 38 | 10 | 96 | 100 | – | – |
| C#CCN1CC(=O)N(COC(=O)C2C(C=C(Cl)Cl)C2(C)C)C1=O (racemic) [Present compound (1) (dl-cis,trans isomer), 1-Propargyl-3-hydantoinylmethyl 2,2-dimethyl-3-(2,2-dichlorovinyl)cyclopropanecarboxylate] | 90 | 69 | 60 | 96 | 100 | – | Flushing out ([4]; 38"): 35%; Flushing out ([4]; 75"): 65%; Flushing out ([4]; 150"): 75%; Flushing out ([4]; 300"): 85%; Flushing out ([4]; 600"): 95% |
| C#CCN1CC(=O)N(COC(=O)[C@@H]2[C@@H](C=C(Br)Br)C2(C)C)C1=O [Present compound (11) (d-trans isomer), 1-Propargyl-3-hydantoinylmethyl 2,2-dimethyl-3-(2,2-dibromovinyl)cyclopropanecarboxylate] | 85 | 35 | 30 | 78 | 100 | – | – |
| C#CCN1C(=O)N(COC(=O)C2C(C=C(Cl)Cl)C2(C)C)C(=O)C1CC (stereo not shown) [Present compound (24), 1-Propargyl-5-ethyl-3-hydantoinylmethyl 2,2-dimethyl-3-(2,2-dichlorovinyl)cyclopropanecarboxylate] | – | – | – | – | – | 85 | – |
| CNC(=O)Oc1ccccc1OC(C)C [Propoxur, reference compound] | – | – | – | – | – | – | Flushing out ([4]; 38"): 0%; Flushing out ([4]; 75"): 0%; Flushing out ([4]; 150"): 0%; Flushing out ([4]; 300"): 0%; Flushing out ([4]; 600"): 5% |
| C=CCN1CC(=O)N(COC(=O)C(c2ccc(Br)cc2)C(C)C)C1=O (stereo not drawn) [Present compound (18), 1-Allyl-3-hydantoinylmethyl α-(4-bromophenyl)isovalerate] | – | – | – | – | – | 90 | mortality at 500 µg/mL [3, 8]: 100% |
| C#CCN1CC(=O)N(COC(=O)[C@@H]2[C@@H](C=NOC)C2(C)C)C1=O [Present compound (12), 1-Propargyl-3-hydantoinylmethyl 2,2-dimethyl-3-methoxyiminomethylcyclopropanecarboxylate] | – | – | – | – | – | 100 | – |
| C#CCN1CC(=O)N(COC(=O)[C@@H]2[C@@H](C=C(Cl)Cl)C2(C)C)C1=O [Present compound (1) (d-trans isomer), 1-Propargyl-3-hydantoinylmethyl 2,2-dimethyl-3-(2,2-dichlorovinyl)cyclopropanecarboxylate] | 100 | 30 | 80 | 60 | 100 | – | – |
| C#CCN1CC(=O)N(COC(=O)[C@@H]2[C@@H](C=C(C)C)C2(C)C)C1=O [Present compound (7), 1-Propargyl-3-hydantoinylmethyl chrysanthemate] | 100 | 30 | 10 | 72 | 100 | – | – |
| C#CCN1CC(=O)N(COC(=O)C(c2ccc(Cl)c(Cl)c2)C(C)C)C1=O (stereo not drawn) [Present compound (19), 1-Propargyl-3-hydantoinylmethyl α-(3,4-dichlorophenyl)isovalerate] | – | – | – | – | – | 85 | – |
| C#CCN1C(=O)CN(COC(=O)C2C(C=C(Cl)Cl)C2(C)C)C1=O (stereo not shown) [Present compound (4), 3-Propargyl-1-hydantoinylmethyl 2,2-dimethyl-3-(2,2-dichlorovinyl)cyclopropanecarboxylate] | 85 | 50 | 30 | 280 | 100 | – | – |
| CC(C)=CC1C(C(=O)OCN2C(=O)C3=C(CCCC3)C2=O)C1(C)C (stereo not shown) [Tetramethrin, N-(chrysanthemoxymethyl)-3,4,5,6-tetrahydrophthalimide, reference compound] | 45 | 162 | 20 | 372 | – | – | – |
| CC(C)=CC1C(C(=O)OCc2coc(Cc3ccccc3)c2)C1(C)C (stereo not shown) [Resmethrin, 5-benzyl-3-furylmethyl chrysanthemate, reference compound] | – | – | – | – | – | 50 | – |
| C#CCN1C(=O)CN(COC(=O)C(c2ccc(F)cc2)C(C)C)C1=O (stereo not drawn) [Present compound (21), 3-Propargyl-1-hydantoinylmethyl α-(4-fluorophenyl)isovalerate] | – | – | – | – | – | 90 | mortality at 500 µg/mL [3, 8]: 90% |
| C#CCN1CC(=O)N(COC(=O)C(c2cccc(Cl)c2)C(C)C)C1=O (stereo not drawn) [Present compound (14), 1-Propargyl-3-hydantoinylmethyl α-(3-chlorophenyl)isovalerate] | – | – | – | – | – | 85 | mortality at 500 µg/mL [3, 8]: 100% |
| C#CCN1CC(=O)N(COC(=O)C(c2ccc(C)cc2)C(C)C)C1=O (stereo not drawn) [Present compound (15), 1-Propargyl-3-hydantoinylmethyl α-(4-methylphenyl)isovalerate] | – | – | – | – | – | 90 | mortality at 500 µg/mL [3, 8]: 90% |
| C=CCN1C(=O)CN(COC(=O)C2C(C=C(Cl)Cl)C2(C)C)C1=O (stereo not shown) [Present compound (5), 3-Allyl-1-hydantoinylmethyl 2,2-dimethyl-3-(2,2-dichlorovinyl)-cyclopropanecarboxylate] | – | – | – | – | 100 | 100 | – |
| C#CCN1CC(=O)N(COC(=O)[C@@H]2[C@@H](C=C(C)C=C)C2(C)C)C1=O (relative stereo) [Present compound (10), 1-Propargyl-3-hydantoinylmethyl 2,2-dimethyl-3-(2-methylbutadienyl)cyclopropanecarboxylate] | – | – | – | – | 95 | 90 | – |
| C=CCN1CC(=O)N(COC(=O)C(c2ccc(Cl)cc2)C(C)C)C1=O (stereo not drawn) [Present compound (20), 1-Allyl-3-hydantoinylmethyl α-(4-chlorophenyl)isovalerate] | – | – | – | – | – | 85 | – |
| C#CCN1CC(=O)N(COC(=O)C(c2ccc3c(c2)OCO3)C(C)C)C1=O (stereo not drawn) [Present compound (16), 1-Propargyl-3-hydantoinylmethyl α-(3,4-methylenedioxyphenyl)isovalerate] | – | – | – | – | – | 100 | mortality at 500 µg/mL [3, 8]: 90% |
| C#CCN1CC(=O)N(COC(=O)C(c2ccc(OC)cc2)C(C)C)C1=O (stereo not drawn) [Present compound (17), 1-Propargyl-3-hydantoinylmethyl α-(4-methoxyphenyl)isovalerate] | – | 140 | – | 280 | – | – | mortality at 0.1 % ([1]; northern house mosquito female adult, 0.1% oil spray, 0.7 ml, after 24 hours, read-out: Mortality): 75%; mortality at 0.1 % ([2]; housefly adult, 0.1% oil spray, 0.7 ml, after 24 hours, read-out: Mortality): 35%; mortality at 500 µg/mL [3, 8]: 95% |
| C#CCN1C(=O)N(COC(=O)C2C(C=C(C)C)C2(C)C)C(=O)C1C (stereo not shown) [Present compound (23), 1-Propargyl-5-methyl-3-hydantoinylmethyl chrysanthemate] | – | – | – | – | – | 100 | – |
| C#CCN1C(=O)N(COC(=O)C2C(C=C(Cl)Cl)C2(C)C)C(=O)C1C (stereo not shown) [Present compound (22), 1-Propargyl-5-methyl-3-hydantoinylmethyl 2,2-dimethyl-3-(2,2-dichlorovinyl)cyclopropanecarboxylate] | 85 | 75 | 20 | 114 | – | – | – |
| CCCN1CC(=O)N(COC(=O)C2C(C=C(Cl)Cl)C2(C)C)C1=O (stereo not shown) [Present compound (3), 1-Propyl-3-hydantoinylmethyl 2,2-dimethyl-3-(2,2-dichlorovinyl)cyclopropanecarboxylate] | – | – | – | – | – | 100 | Flushing out ([4]; 38"): 30%; Flushing out ([4]; 75"): 45%; Flushing out ([4]; 150"): 45%; Flushing out ([4]; 300"): 50%; Flushing out ([4]; 600"): 65% |
